Assay results as given in ChEMBL document CHEMBL1201862, “PubChem BioAssay data set” (2004).
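96-well plates; 48 h exposure; 5 concentrations. Endpoints by linear interpolation between flanking doses. Not reached: highest tested concentration assigned. GI50 marks 50% less growth.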 The source made the active and inactive calls. Cut-off read from the data, not from the text of the source: active = GI50 up to about 1.1 µM and inactive = higher.

Columns and labels:
Experiment in all cases: NCI anticancer screen, dose series, 48 h
[1] = tested on: UACC-257
[2] = tested on: HL-60
[3] = tested on: 786-0
[4] = tested on: HCT-15
[5] = tested on: NCI-H23
[6] = tested on: HCC 2998
[7] = tested on: A549
[8] = tested on: IGROV-1
[9] = tested on: SN12C
[10] = tested on: SNB-75
[11] = tested on: SF-295
[12] = tested on: OVCAR-3
[13] = tested on: TK-10
[14] = tested on: OVCAR-5
[15] = tested on: KM12
[16] = tested on: NCI-H226

Structure (SMILES)	GI50 [1]	GI50 [2]	GI50 [3]	GI50 [4] [µM]	GI50 [5]	GI50 [6]	GI50 [7]	GI50 [8]	GI50 [9]	GI50 [10]	GI50 [11]	GI50 [12]	GI50 [13]	GI50 [14]	GI50 [15]	GI50 [16]
CCOC(=O)NC(=O)c1cn(CCCOC(=O)NCCCCCCNC(=O)OCCCn2cc(C(=O)NC(=O)OCC)c(=O)[nH]c2=O)c(=O)[nH]c1=O	19.2 µM (inactive)	16.7 µM (inactive)	20 µM (inactive)	28.2	> 10 µM (inactive)	20 µM (inactive)	> 100 µM (inactive)	41.9 µM (inactive)	47.6 µM (inactive)	23.3 µM (inactive)	22.5 µM (inactive)	17.4 µM (inactive)	29.8 µM (inactive)	–	–	–
Cn1cc(NC(=O)c2cc(NC(=O)CCCCCC(=O)Nc3cc(C(=O)Nc4cc(C(=O)NCCC(=N)N)n(C)c4)n(C)c3)cn2C)cc1C(=O)NCCC(=N)N	27.2 µM (inactive)	30 µM (inactive)	> 100 µM (inactive)	> 100	> 100 µM (inactive)	> 100 µM (inactive)	45.3 µM (inactive)	98.6 µM (inactive)	> 100 µM (inactive)	> 100 µM (inactive)	> 100 µM (inactive)	> 100 µM (inactive)	> 100 µM (inactive)	> 100 µM (inactive)	73.8 µM (inactive)	–
O=C(c1ccccc1)N1C2C3CC(OCc4ccccc4)(OCc4ccccc4)C(O3)C21 (stereo unspecified)	–	> 100 µM (inactive)	> 100 µM (inactive)	> 100	> 100 µM (inactive)	> 100 µM (inactive)	> 100 µM (inactive)	> 100 µM (inactive)	> 100 µM (inactive)	> 100 µM (inactive)	–	–	> 100 µM (inactive)	> 100 µM (inactive)	–	> 100 µM (inactive)
Nc1ncnc2c1ncn2C1OC(CSCc2ccc(Cl)cc2)C(O)C1O (stereo unspecified)	31.3 µM (inactive)	23.8 µM (inactive)	34.1 µM (inactive)	12	24.2 µM (inactive)	44.9 µM (inactive)	43.1 µM (inactive)	89.3 µM (inactive)	45.7 µM (inactive)	18.3 µM (inactive)	50.9 µM (inactive)	32.1 µM (inactive)	55 µM (inactive)	> 100 µM (inactive)	24.2 µM (inactive)	–
COc1cc2c(c(OC)c1OC)-c1ccc(SC)c(=O)cc1[C@@H](NC(=O)c1cccc([N+](=O)[O-])c1)CC2	< 0.01 µM (active)	< 0.01 µM (active)	0.0351 µM (active)	–	< 0.01 µM (active)	0.0207 µM (active)	–	0.0288 µM (active)	0.0282 µM (active)	0.0264 µM (active)	0.0208 µM (active)	0.0191 µM (active)	0.047 µM (active)	> 100 µM (inactive)	< 0.01 µM (active)	< 0.01 µM (active)
O=C1c2ccccc2C(=O)N1C/C=N/NS(=O)(=O)c1cccc([N+](=O)[O-])c1	> 100 µM (inactive)	> 100 µM (inactive)	> 100 µM (inactive)	> 100	> 100 µM (inactive)	> 100 µM (inactive)	> 100 µM (inactive)	> 100 µM (inactive)	> 100 µM (inactive)	> 100 µM (inactive)	> 100 µM (inactive)	–	> 100 µM (inactive)	–	> 100 µM (inactive)	–
CN(C)CC/C(=N\Nc1ccc(Cl)cc1Cl)c1ccccc1	15.9 µM (inactive)	5.07 µM (inactive)	13.7 µM (inactive)	12.4	17 µM (inactive)	–	15 µM (inactive)	10.1 µM (inactive)	12.6 µM (inactive)	7.74 µM (inactive)	18.5 µM (inactive)	14 µM (inactive)	15.1 µM (inactive)	16.9 µM (inactive)	16 µM (inactive)	–
